Measurements from patent US20180251431A1 (VERTEX PHARMACEUTICALS INCORPORATED, priority 2016, published 2018).

System: HEK293 cells
Assay: HEK293 VLCFA-LPC IC50 determination (13C-labeled C26:0 LPC by UHPLC/MS)
Format: cell-based, human
Details: Homo sapiens, HEK293, 48 h, average of one or more replicates; 13C-labeled C26:0 LPC, 48 hours; read-out: Average HEK293 IC50
Summary of the method: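 Suspension HEK293 cells (final 0.5 million/mL after mixing with equal volume) incubated 48 hours with compound plus 13C-acetate (1.0 mg/mL in added media), shaking at 37° C. Lipids extracted with hexane/isopropanol or methanol, C13:0 LPC standard. UHPLC/MS of 13C-labeled C26:0 LPC (638.500/104.100 m/z); IC50 by four-parameter fit.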

Compound | IC50
Cc1c(-n2ccc(NC(=O)C3(c4ccccc4F)CC3)n2)ccnc1F [Compound 351, N-[1-(2-fluoro-3-methyl-4-pyridyl)pyrazol-3-yl]-1-(2-fluorophenyl)cyclopropanecarboxamide] | 420 nM
O=C(Nc1ccn(-c2cncc(C(F)(F)F)c2)n1)C1(c2ccccc2F)CC1 [Compound 316, 1-(2-fluorophenyl)-N-[1-[5-(trifluoromethyl)-3-pyridyl]pyrazol-3-yl]cyclopropanecarboxamide] | > 5000 nM
Cc1cn(-c2ccccc2)nc1NC(=O)C1(c2cccc(F)c2)CCC1 [Compound 372, 1-(3-fluorophenyl)-N-(4-methyl-1-phenyl-pyrazol-3-yl)cyclobutanecarboxamide] | 3700 nM
Cc1nnc(-n2ccc(NC(=O)C3(c4ccccc4F)CC3)n2)s1 [Compound 404, 1-(2-fluorophenyl)-N-[1-(5-methyl-1,3,4-thiadiazol-2-yl)pyrazol-3-yl]cyclopropanecarboxamide] | > 5000 nM

Same assay, conditions: Homo sapiens, HEK293, HEK293 cells; average of one or more replicates; read-out: Average HEK293 IC50

Compound | IC50
O=C(Nc1ccn(-c2ccccc2)n1)C1(c2ccccc2)CCC1 [Compound 35, 1-phenyl-N-(1-phenylpyrazol-3-yl)cyclobutanecarboxamide] | 330 nM
O=C(Cc1ccccc1)Nc1ccn(-c2cccnc2)n1 [Compound 213, 2-phenyl-N-(1-(pyridin-3-yl)-1H-pyrazol-3-yl)acetamide] | 1200 nM
COc1ncc(-n2ccc(NC(=O)C3(c4ncccn4)CC3)n2)cc1F [Compound 535, N-[1-(5-fluoro-6-methoxy-3-pyridyl)pyrazol-3-yl]-1-pyrimidin-2-yl-cyclopropanecarboxamide] | > 5000 nM
O=C(Cc1ccccc1F)Nc1ccn(-c2nccs2)n1 [Compound 90, 2-(2-fluorophenyl)-N-(1-thiazol-2-ylpyrazol-3-yl)acetamide] | 350 nM
O=C(Nc1ccn(-c2ccncc2)n1)C1(c2ncccc2F)CC1 [Compound 422, 1-(3-fluoro-2-pyridyl)-N-[1-(4-pyridyl)pyrazol-3-yl]cyclopropanecarboxamide] | 200 nM
Cc1ccccc1C1(C(=O)Nc2ccn(-c3ccnc(F)c3)n2)CC1 [Compound 252, N-[1-(2-fluoro-4-pyridyl)pyrazol-3-yl]-1-(o-tolyl)cyclopropanecarboxamide] | 400 nM
O=C(Cn1cncn1)Nc1ccn(-c2ccnc(F)c2)n1 [Compound 303, N-[1-(2-fluoro-4-pyridyl)pyrazol-3-yl]-2-(1,2,4-triazol-1-yl)acetamide] | > 5000 nM
COc1ccc(-n2ccc(NC(=O)C3(c4ccccc4F)CC3)n2)c(F)c1 [Compound 470] | > 2000 nM
O=C(Nc1ccn(-c2ccnc(F)c2)n1)C1(c2cc(F)ccc2F)CC1 [Compound 260, 1-(2,5-difluorophenyl)-N-[1-(2-fluoro-4-pyridyl)pyrazol-3-yl]cyclopropanecarboxamide] | 170 nM
O=C(Nc1ccn(-c2cnc(Cl)s2)n1)C1(c2ccccc2F)CC1 [Compound 410, N-[1-(2-chlorothiazol-5-yl)pyrazol-3-yl]-1-(2-fluorophenyl)cyclopropanecarboxamide] | 100 nM
O=C(Cc1ccccc1)Nc1ccn(-c2nccs2)n1 [Compound 89, 2-phenyl-N-(1-thiazol-2-ylpyrazol-3-yl)acetamide] | 340 nM
O=C(Nc1ccn(-c2ccnc(F)c2)n1)C1(c2ccccc2)COC1 [Compound 149, N-[1-(2-fluoro-4-pyridyl)pyrazol-3-yl]-3-phenyl-oxetane-3-carboxamide] | 660 nM
O=C(Nc1ccn(-c2ccccc2)n1)C1(c2ccccc2)CCOCC1 [Compound 178, 4-phenyl-N-(1-phenylpyrazol-3-yl)tetrahydropyran-4-carboxamide] | > 5000 nM
O=C(Nc1ccn(-c2cccc(Cl)c2)n1)C1(c2ccccc2)CC1 [Compound 129, N-[1-(3-chlorophenyl)pyrazol-3-yl]-1-phenyl-cyclopropanecarboxamide] | 700 nM
O=C(Cc1ccc(F)cc1F)Nc1ccn(-c2ccccc2)n1 [Compound 18, 2-(2,4-difluorophenyl)-N-(1-phenylpyrazol-3-yl)acetamide] | 260 nM
C[C@@H](C(=O)Nc1ccn(-c2ccccc2)n1)c1ccccc1 [Compound 27, (2R)-2-phenyl-N-(1-phenylpyrazol-3-yl)propanamide] | 210 nM
Cc1cc(NC(=O)C2(c3ncccc3F)CC23CC3)nn1-c1ccc(F)cc1F (stereo not drawn) [Compound 523, N-[1-(2,4-difluorophenyl)-5-methyl-pyrazol-3-yl]-2-(3-fluoro-2-pyridyl)spiro[2.2]pentane-2-carboxamide] | > 2000 nM
O=C(Cc1cccc(Cl)c1)Nc1ccn(-c2ccccc2)n1 [Compound 50, 2-(3-chlorophenyl)-N-(1-phenylpyrazol-3-yl)acetamide] | > 5000 nM
O=C(Nc1ccn(-c2ncccc2F)n1)C1(c2ncccc2F)CC1 [Compound 460, 1-(3-fluoro-2-pyridyl)-N-[1-(3-fluoro-2-pyridyl)pyrazol-3-yl]cyclopropanecarboxamide] | > 2000 nM
[2H]c1nc(C)nc([2H])c1-n1ccc(NC(=O)C2(c3ccccc3F)CC2)n1 [Compound 258, N-[1-(4,6-dideuterio-2-methyl-pyrimidin-5-yl)pyrazol-3-yl]-1-(2-fluorophenyl)cyclopropanecarboxamide] | > 5000 nM
O=C(Nc1ccn(-c2nccs2)n1)C1(c2ccccc2F)CC1 [Compound 92, 1-(2-fluorophenyl)-N-(1-thiazol-2-ylpyrazol-3-yl)cyclopropanecarboxamide] | 38 nM
COc1ncc(-n2ccc(NC(=O)C3(c4ncccc4F)CC3)n2)cc1F [Compound 452, N-[1-(5-fluoro-6-methoxy-3-pyridyl)pyrazol-3-yl]-1-(3-fluoro-2-pyridyl)cyclopropanecarboxamide] | 54 nM
Cc1ccc(C)c(CC(=O)Nc2ccn(-c3ccccc3)n2)c1 [Compound 55, 2-(2,5-dimethylphenyl)-N-(1-phenylpyrazol-3-yl)acetamide] | > 5000 nM
O=C(Nc1ccn(-c2cc(F)cc(F)c2)n1)C1(c2ccccc2)CC1 [Compound 308, N-(1-(3,5-difluorophenyl)-1H-pyrazol-3-yl)-1-phenylcyclopropane-1-carboxamide] | 140 nM
COc1ncc(-n2ccc(NC(=O)C3(c4ncccc4F)CC34CC4)n2)cc1F (stereo not drawn) [Compound 525, N-[1-(5-fluoro-6-methoxy-3-pyridyl)pyrazol-3-yl]-2-(3-fluoro-2-pyridyl)spiro[2.2]pentane-2-carboxamide] | 680 nM
O=C(Nc1ccn(-c2cccnc2)n1)C1(c2ccccc2F)CC1 [Compound 214, 1-(2-fluorophenyl)-N-[1-(3-pyridyl)pyrazol-3-yl]cyclopropanecarboxamide] | 45 nM
O=C(Cc1cccc(Cl)c1Cl)Nc1ccn(-c2ccccc2)n1 [Compound 69, 2-(2,3-dichlorophenyl)-N-(1-phenylpyrazol-3-yl)acetamide] | 5000 nM
O=C(Nc1ccn(-c2cccnn2)n1)C1(c2ccccc2F)CC1 [Compound 239, 1-(2-fluorophenyl)-N-(1-pyridazin-3-ylpyrazol-3-yl)cyclopropanecarboxamide] | 300 nM

Same assay, conditions: Homo sapiens, HEK293, read-out: Average HEK293 IC50

Compound | IC50
O=C(Nc1ccn(-c2ccnc(F)c2)n1)C1(c2ccccc2)CC1(F)F (racemic) [Compound 169, 2,2-difluoro-N-(1-(2-fluoropyridin-4-yl)-1H-pyrazol-3-yl)-1-phenylcyclopropane-1-carboxamide] | 52 nM
